Here are results for three molecules from patent US20080076729A1, “Interferon-beta gene therapy using an improved, regulated expression system” (Schering Aktiengesellachaft, priority 2005, published 2008).

One assay deals with SJL mice with acute EAE. The experiment in a line: Mouse acute EAE model, daily clinical scoring. The class given is in vivo. The settings on record: Mesopram 9 mg/kg, Prednisolone 2.5 mg/kg, IP twice daily.
The target of a further assay is GAL-4 DBS. The settings on record: read-out: Kd for binding; cited from earlier work.

On to `CCCOc1cc([C@]2(C)CNC(=O)O2)ccc1OC` [Mesopram, reference compound], for which the “clinical scores of EAE, positive controls” value in the assay with SJL mice with acute EAE (first study) and in the assay on SJL mice with acute EAE (second study) was “significantly decreased clinical scores” in each case.

Take `C[C@]12C=CC(=O)C=C1CC[C@@H]1[C@@H]2[C@@H](O)C[C@@]2(C)[C@H]1CC[C@]2(O)C(=O)CO` [Prednisolone, reference compound]: the “clinical scores of EAE, positive controls” value in the assay on SJL mice with acute EAE (first study) and in the assay on SJL mice with acute EAE (second study) was “significantly decreased clinical scores” each time.

Take “GAL-4 residues 1-100: N-terminal DNA binding fragment of yeast GAL-4 protein”: at GAL-4 DBS, the dissociation constant (Kd) is 3 nM.

What is called Kd is the free concentration of one partner at which half of the binding sites on the other are occupied at equilibrium, for simple one-to-one binding.
